The values that follow come from PMC10967270, “Intrapulmonary and Systemic Pharmacokinetics of Colistin Following Nebulization of Low-Dose Colistimethate Sodium in Patients with Ventilator-Associated Pneumonia Caused by Carbapenem-Resistant Acinetobacter baumannii” (Antibiotics, 2024).

This data set is described as follows: Colistin concentration in epithelial lining fluid (BALF, urea-corrected) after CMS nebulization. The data set is classed as in vivo, human. The protocol:
Patients were treated with CMS (Xellia Pharmaceuticals ApS, Copenhagen, Denmark) at a total of 3.75 MIU (equivalent to 300 mg of CMS or 112.5 mg of CBA) administered four times a day at 6 h intervals. CMS was dissolved in 5 mL of normal saline and administered over 30 min through a jet nebulizer (Sileo 54, Macjin Medical, Seoul, Republic of Korea) connected to the ventilator circuit. Bronchoalveolar lavage fluid (BALF) was obtained by instilling 20 mL of normal saline into the right middle lobe or left lingular segmental bronchus using a bronchoscope, followed by immediate aspiration and collection into a syringe. Samples were collected immediately before the nebulization treatment and at 1, 3, and 5 h after the start of the treatment. Blood samples were collected before the nebulization treatment and at 1, 2, 3, and 5 h thereafter. Both BALF and blood samples were centrifuged at 3000× g for 10 min within 1 h of collection and the supernatant was isolated. Samples were then stored in a refrigerator at a temperature below −70 °C.
A validated liquid chromatography–tandem mass spectrometry assay was used to determine colistin concentrations in BALF and plasma samples. The HPLC equipment consisted of an Agilent 1200 series modular system and an Atlantis C18 column (Company, Waters, Milford, MA, USA) (2.1 mm × 150 mm, 3.0 μm). Mobile phases A and B were water and acetonitrile, respectively. Both phases contained 0.1% formic acid. A gradient elution program was started at 10% B, increased to 35% for 1 min, maintained at this composition for 3.8 min, and returned to the initial composition for 5 min to re-equilibrate the column. Mass spectrometry (MS) was performed using a triple-quadruple mass spectrometer (SCIEX QTRAP5500, Applied Biosystems, Foster City, CA, USA) with an electrospray ionization (ESI) interface. The ESI source was set to positive ionization mode. The parent to product transition (m/z) was 578.483→101.071 for colistin A, 585.453→101.071 for colistin B, and 602.527→101.000 for polymyxin B. Data acquisition and processing were performed using the Analyst software (version 1.7.1; Applied Biosystems, Foster City, CA, USA). Stock solutions of colistin and IS were prepared in deionized water at concentrations of 10 mg/mL, and both were stored at −20 °C. Working solutions of colistin were prepared in deionized water (dilutions of 2, 5, 10, 50, 100, 500, and 1000 μg/mL). Calibration standards were prepared by spiking 247.5 μL of drug-free plasma with 2.5 μL of colistin working solution. Low (colistin A; 11.16 ng/mL, colistin B; 48.84 ng/mL), moderate (colistin A; 186 ng/mL, colistin B; 814 ng/mL), and high (colistin A; 1488 ng/mL, colistin B; 6512 ng/mL) concentrations of QC samples were prepared. Sample pretreatment involved a solid phase extraction. A 250 μL aliquot of plasma was pipetted into a 1.5 mL Eppendorf tube, to which 10 μL of IS (10 μg/mL, polymyxin B) and 740 μL of deionized water were added. This mixture was loaded into a cartridge that had been preconditioned twice with 1 mL of methanol and 1 mL of deionized water. After the plasma mixture was loaded, the cartridge was washed with 1 mL of deionized water. One milliliter of methanol including 0.1% formic acid was used for extraction. Extraction liquid was evaporated by vacuum concentrator (Speedvac, Thermo Fisher Scientific Inc., Waltham, MA, USA) at 45 °C for 2.5 h. Samples were reconstituted in 100 μL deionized water containing 0.1% formic acid. Subsequently, samples were vortexed for 5 min and centrifuged at 13,200 rpm for 10 min, and […] of supernatant was injected into the LC-MS system.
Colistin concentrations, encompassing both colistin A and colistin B, were determined and collectively referred to as “colistin”. The concentration of colistin in the epithelial lining fluid (ELF), termed CELF, was calculated using the formula CELF = CBAL (Ureaplasma/UreaBAL), where CBAL is the colistin concentration measured in BALF. […]

Positions of bridges follow the written chain, without caps; N, C: chain ends. Non-standard residues stand in square brackets, D forms with d. Residues, ends and D or L forms follow the SMILES beside them. *: point of attachment. X1 = CC[C@H](C)CCCCC(=O)*; Dab = NCC[C@H](N)C(=O)O

Consider `CC[C@H](C)CCCCC(=O)N[C@@H](CCN)C(=O)N[C@H](C(=O)N[C@@H](CCN)C(=O)N[C@H]1CCNC(=O)[C@H]([C@@H](C)O)NC(=O)[C@H](CCN)NC(=O)[C@H](CCN)NC(=O)[C@H](CC(C)C)NC(=O)[C@@H](CC(C)C)NC(=O)[C@H](CCN)NC1=O)[C@@H](C)O` [colistin] (X1-[Dab]T[Dab][Dab][Dab][dL]L[Dab][Dab]T; lactam 4-C), for which the level at 1 h (human, epithelial lining fluid, inhaled or intranasal, 1 h after start (time by position in Figure 1a), CMS 0.9375 MIU nebulized over 30 min, LC-MS/MS, 20 patients, read-out: Median colistin concentration in ELF) is 11800 ng/mL. Further, the level at 3 h (human, epithelial lining fluid, inhaled or intranasal, 3 h after start (time by position in Figure 1a), CMS 0.9375 MIU nebulized over 30 min, LC-MS/MS, 20 patients, read-out: Median colistin concentration in ELF) was 15400 ng/mL. For the setting “human, epithelial lining fluid, inhaled or intranasal, 5 h after start (time by position in Figure 1a), CMS 0.9375 MIU nebulized over 30 min, LC-MS/MS, 20 patients, read-out: Median colistin concentration in ELF”, the level at 5 h stood at 8160 ng/mL. Besides, the Kp at 1 h (human, epithelial lining fluid, inhaled or intranasal, at 1 h, median concentrations, nebulized CMS 0.9375 MIU, read-out: Colistin concentration in ELF relative to plasma) was ~614. Besides, for the setting “human, epithelial lining fluid, inhaled or intranasal, at 3 h, median concentrations, nebulized CMS 0.9375 MIU, read-out: Colistin concentration in ELF relative to plasma”, the Kp at 3 h was ~408. Under “human, epithelial lining fluid, inhaled or intranasal, at 5 h, median concentrations, nebulized CMS 0.9375 MIU, read-out: Colistin concentration in ELF relative to plasma”, the Kp at 5 h was ~250. Further, the “Observed peak colistin concentration in ELF, median (IQR)” value (nebulized CMS 0.9375 MIU over 30 min, monitored over 5 h, 20 patients) is listed as 21,950 (10,440–28,389) μg/L.
